Assay results reported in PMC8000760, “Potential Effect of Pseudevernia furfuracea (L.) Zopf Extract and Metabolite Physodic Acid on Tumour Microenvironment Modulation in MCF-10A Cells” (Biomolecules, 2021).

Key:
[1] = tested on: HUVEC; parameters: method as in PMID 22669534; conditions: cited from earlier work
[2] = tested on: endothelial tube formation; conditions: cited from earlier work
[3] = tested on: N-cadherin, Snail, Twist, E-cadherin; parameters: method as in PMID 26371759; conditions: cited from earlier work
[4] = tested on: angiogenesis in vivo; parameters: method as in PMID 22669534; conditions: chorioallantoic membrane assay and corneal angiogenesis assay; cited from earlier work
[5] = tested on: EMT process; conditions: through decreasing the mRNA level of E-cadherin; cited from earlier work
[6] = tested on: MCF-10A cells; experiment: Flow cytometry cell cycle phase distribution; type: cell-based, human; conditions: treatment alone (IC10 of PSE/Phy, or TGF-β 30 ng/mL)
Experimental: The MCF-10A and BJ-5ta cells were seeded and cultivated for 24 h in a complete medium. One day after seeding, 30 ng/mL of TGF-β was added and cultivated for 7 days (d). TGF-β was added to induce epithelial–mesenchymal transition in tested cell lines. Lichen extract P. furfuracea (L.) Zopf and its metabolite physodic acid were added at time 0 h and then incubated for 24, 48 and 72 h for various analyses, as described in Figure 1.
The MCF-10A cells (1 × 10^4/well) were seeded in Petri dishes and stimulated with […] TGF-β for 7 days. […] After detaching, using Trypsin/EDTA, cells were harvested and pelleted by centrifugation at 1200 rpm for 5 min. Pellet was re-suspended in PBS and divided for a particular analysis. Cells were stained prior to analyses with E-Cadherin Mouse mAb (Alexa Fluor 488 conjugate) or N-cadherin Rabbit mAb (Alexa Fluor 647 conjugate) (Cell Signalling) for 15 min at RT in the dark. For the cell cycle analyses, cells were re-suspended in staining solution (final concentration 0.1% Triton X-100, 0.5 mg/mL ribonuclease A and 0.025 mg/mL propidium iodide (PI)), and incubated in the dark at RT for 30 min. All samples were analysed using a FACS Calibur flow cytometer (Becton Dickinson, San Jose, CA, USA). The IgG isotype control checking was performed for every used antibody.

## CC(=O)c1c(O)c(C)c(O)c2c1OC1=CC(=O)C(C(C)=O)C(=O)C12C (stereo not drawn) [(+)- usnic acid]
[1]
  VEGF-induced HUVEC migration and tube formation: inhibits

## CCCCCC(=O)Cc1cc(O)cc(O)c1C(=O)Oc1cc(O)c(C(=O)O)c(CCCCC)c1 [olivetoric acid]
[2]
  endothelial tube formation: inhibiting

## COC(=O)c1c(C)c2c(c(C)c1O)OC(=O)c1c(C)c(Cl)c(O)c(C=O)c1O2 [physciosporin]
[3]
  changes in E-cadherin levels: not observed
  level of EMT-associated proteins N-cadherin, Snail and Twist: decrease

## CC(=O)c1c(O)c(C)c(O)c2c1OC1=CC(=O)C(C(C)=O)C(=O)C12C (centres unmarked) [usnic acid]
[4]
  angiogenesis in vivo: inhibits
[2]
  anti-angiogenic activity by inhibiting endothelial tube formation: strong anti-angiogenic activity
[5]
  effect on the EMT process: inhibitory effect

## COC(=O)/C(=C1/OC(=O)C(c2ccccc2)=C1O)c1ccccc1 [vulpinic acid]
[2]
  anti-angiogenic activity by inhibiting endothelial tube formation: strong anti-angiogenic activity

## TGF-β
[6]; 24 h
  G1 cell cycle phase distribution: 74.55 ± 1.59
  G2/M cell cycle phase distribution: 13.25 ± 2.49
  S cell cycle phase distribution: 11.15 ± 0.69
  Sub G0 cell cycle phase distribution: 1.07 ± 0.22
[6]; 48 h
  G1 cell cycle phase distribution: 83.05 ± 2.74
  G2/M cell cycle phase distribution: 8.63 ± 1.69
  S cell cycle phase distribution: 7.39 ± 0.88
  Sub G0 cell cycle phase distribution: 0.94 ± 0.16
[6]; 72 h
  G1 cell cycle phase distribution: 81.35 ± 0.37
  G2/M cell cycle phase distribution: 10.85 ± 0.45
  S cell cycle phase distribution: 6.61 ± 0.74
  Sub G0 cell cycle phase distribution: 1.22 ± 0.07
